This experiment deals with T1, CtrSTP1.
T1 construct: full CDS in pDR196, expressed in hexose/sucrose transport-deficient yeast strain CSY4000; plasma membrane hexose transporter
Description: […]-glucose uptake in CSY4000 yeast, Eadie-Hofstee. The experiment is classed as cell-based, Citrus trifoliata. To be noted: pH 5.0; 30 °C; 25 mM sodium phosphate; whole yeast cells; labelled compound; proton-coupled.

The structures appear in SMILES notation.

With `OC[C@H]1OC(O)[C@H](O)[C@@H](O)[C@@H]1O` (stereo partly shown) [glucose], the Km was 101 ± 23.9 µM.

Broadly, the Km is the substrate concentration at which the rate is half of its maximum.

(Values after PMC12697822, “The CtrCBL1/CtrCIPK6 Complex of Citrus Phosphorylates CtrBBX32 to Regulate CtrSTP1‐Mediated Sugar Accumulation and Cold Tolerance” (Advanced Science, 2025).)
